Patent publication US6844443B2, “Benzimidazole derivatives, their production and use” (Takeda Pharmaceutical Company, Ltd., priority 1990, dated 2005)

Experiments:
A II receptor = target: T1, A II receptor (Bos taurus, UniProt P25104); assay: Inhibition of binding of angiotensin II to angiotensin receptor (radioreceptor assay); set-up: species or system bovine; Radioreceptor Assay 1 × 10^−7M / Radioreceptor Assay 1 × 10^−6M: unit not given here; details: for inhibition at 1 µM / inhibition at 0.1 µM: 1 h; for inhibition at 1 µM / Radioreceptor Assay 1 × 10^−6M / Radioreceptor Assay 1 × 10^−7M: inhibition of 125I-A II binding, bovine adrenal cortex membrane fraction; for inhibition at 1 µM / Radioreceptor Assay 1 × 10^−6M: compound 1 × 10^−6M; for inhibition at 0.1 µM: read-out: Radioreceptor Assay 1 × 10^−7M; for Radioreceptor Assay 1 × 10^−7M: compound 1 × 10^−7M
T1 construct: An A II receptor membrane fraction was prepared from bovine adrenal cortex; from tissue; host or cells: bovine adrenal cortex membrane fraction
T1 sequence (P25104 1-359): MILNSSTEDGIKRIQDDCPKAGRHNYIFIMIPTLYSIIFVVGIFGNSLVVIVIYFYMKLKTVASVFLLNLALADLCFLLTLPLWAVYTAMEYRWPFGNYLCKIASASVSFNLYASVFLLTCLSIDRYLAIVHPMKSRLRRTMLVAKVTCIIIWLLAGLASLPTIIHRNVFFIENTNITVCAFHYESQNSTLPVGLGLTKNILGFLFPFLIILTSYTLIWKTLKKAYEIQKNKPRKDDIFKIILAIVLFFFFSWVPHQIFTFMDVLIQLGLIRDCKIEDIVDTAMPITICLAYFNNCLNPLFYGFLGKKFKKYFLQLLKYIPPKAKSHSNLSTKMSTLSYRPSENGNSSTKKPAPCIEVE
Procedure: An experiment of inhibition on the binding of angiotensin II (A II) to A II receptor was conducted by modifying the method of Douglas et al. [Endocrinology, 102, 685-696 (1978)]. An A II receptor membrane fraction was prepared from bovine adrenal cortex.
The compound of the present invention (10 ^−6M or 10^−7M) and ^125I-angiotensin II (^125I-A II) (1.85 kBq/50 μl ) were added to the receptor membrane fraction, and the mixture was incubated at room temperature for one hour. The receptor-bound and free ^125I-A II were separated through a filter (Whatman GF/B filter), and the radioactivity of ^125I-A II bound to the receptor was measured.

[1] = system: A II-induced pressor action; assay: Inhibitory effect on pressor action of A II after oral administration; assay type: in vivo, Jcl: SD rats; details: for inhibition in vivo at 3 mg/kg: Rattus norvegicus, po, read-out: Pressor Response to A II (p.o.) 3 mg/kg; for Pressor Response to A II (p.o.) 3 mg/kg: percent inhibition of pressor action of i.v. A II (100 ng/kg), 3 mg/kg p.o., rats
Procedure: Jcl: SD rats (9 week old, male) were employed. On the previous day of the experiment, these animals were applied with cannulation into the femoral artery and vein under anesthesia with pentobarbital Na. The animals were fasted but allowed to access freely to drinking water until the experiment was started. Just on the day of conducting the experiment, the artery cannula was connected with a blood-pressure transducer, and the average blood pressure was recorded by means of polygraph. Before administration of the drug, the pressor action due to intravenous administration of A II (100 ng/kg) as the control was measured. The drugs were orally administered, then, at each point of the measurement, A II was administered intravenously, and the pressor action was similarly measured. By comparing the pressor action before and after administration of the drug, the percent inhibition by the drug on A II-induced pressor action was evaluated.

| SMILES | inhibition at 1 µM (A II receptor) [%] | inhibition at 0.1 µM (A II receptor) [%] | inhibition in vivo at 3 mg/kg [1] [%] | Radioreceptor Assay 1 × 10^−6M (A II receptor) | Radioreceptor Assay 1 × 10^−7M (A II receptor) | Pressor Response to A II (p.o.) 3 mg/kg [1] |
| --- | --- | --- | --- | --- | --- | --- |
| CCOc1nc2cccc(C(=O)OCOC(=O)CC)c2n1Cc1ccc(-c2ccccc2-c2nnn[nH]2)cc1 [Example 51] | 84 | 44 | ≥ 70 | – | – | – |
| COC(=O)c1cccc2nc(OC)n(Cc3ccc(-c4ccccc4-c4nnn[nH]4)cc3)c12 [Example 45] | 67 | 17 | ≥ 70 | – | – | – |
| CCCSc1nc2cccc(C(=O)OCC)c2n1Cc1ccc(-c2ccccc2-c2nnn[nH]2)cc1 [Example 35] | 32 | 7 | – | – | – | – |
| CCOc1nc2cccc(C(=O)OCOC(=O)/C=C/c3ccccc3)c2n1Cc1ccc(-c2ccccc2-c2nnn[nH]2)cc1 [Example 60] | – | – | – | 81 | 44 | +++ (+++ ≧ 70%) |
| CSc1nc2cccc(C(=O)O)c2n1Cc1ccc(-c2ccccc2-c2nnn[nH]2)cc1 [Example 36] | 82 | 51 | ≥ 70 | – | – | – |
| CCNc1nc2cccc(C(=O)OCOC(=O)C(C)(C)C)c2n1Cc1ccc(-c2ccccc2-c2nnn[nH]2)cc1 [Example 62] | 87 | 48 | ≥ 70 | – | – | – |
| CCCSc1nc2cccc(C(=O)O)c2n1Cc1ccc(-c2ccccc2-c2nnn[nH]2)cc1 [Example 38] | 50 | 6 | ≥ 70 | – | – | – |
| CCOc1nc2cccc(C(=O)OCOC(=O)C(C)C)c2n1Cc1ccc(-c2ccccc2-c2nnn[nH]2)cc1 [Example 53] | 85 | 55 | ≥ 70 | – | – | – |
| CCCNc1nc2cccc(C(=O)O)c2n1Cc1ccc(-c2ccccc2-c2nnn[nH]2)cc1 [Example 48] | 92 | 67 | 50 to 70 | – | – | – |
| CCCNc1nc2cccc(C(=O)OCC)c2n1Cc1ccc(-c2ccccc2-c2nnn[nH]2)cc1 [Example 41] | 57 | 45 | – | – | – | – |
| CCNc1nc2cccc(C(=O)O)c2n1Cc1ccc(-c2ccccc2-c2nnn[nH]2)cc1 [Example 47] | – | – | – | 96 | 84 | +++ (+++ ≧ 70%) |
| CCOc1nc2cccc(C(=O)O)c2n1Cc1ccc(-c2ccccc2-c2nnn[nH]2)cc1 [Example 29] | 91 | 61 | ≥ 70 | – | – | – |
| CCOc1nc2cccc(C(=O)OCOC(=O)C(C)(C)C)c2n1Cc1ccc(-c2ccccc2-c2nnn[nH]2)cc1 [Example 43] | – | – | – | 94 | 74 | +++ (+++ ≧ 70%) |
| COc1nc2cccc(C(=O)O)c2n1Cc1ccc(-c2ccccc2-c2nnn[nH]2)cc1 [Example 46] | 88 | 66 | ≥ 70 | – | – | – |
| CCCC(=O)OCOC(=O)c1cccc2nc(OCC)n(Cc3ccc(-c4ccccc4-c4nnn[nH]4)cc3)c12 [Example 52] | 84 | 48 | ≥ 70 | – | – | – |
| CCOC(=O)c1cccc2nc(OCC)n(Cc3ccc(-c4ccccc4-c4nnn[nH]4)cc3)c12 [Example 28] | 82 | 46 | ≥ 70 | – | – | – |
| CCOc1nc2cccc(C(=O)OCOC(=O)C3CCCCC3)c2n1Cc1ccc(-c2ccccc2-c2nnn[nH]2)cc1 [Example 58] | 84 | 55 | ≥ 70 | – | – | – |
| CCOc1nc2cccc(C(=O)OCOC(C)=O)c2n1Cc1ccc(-c2ccccc2-c2nnn[nH]2)cc1 [Example 50] | 92 | 63 | ≥ 70 | – | – | – |
| CNc1nc2cccc(C(=O)O)c2n1Cc1ccc(-c2ccccc2-c2nnn[nH]2)cc1 [Example 57] | 79 | 41 | – | – | – | – |
